Source: EP0308782A2, “Antimycotic preparations” (BAYER AG, priority 1987, dated 1989)
Converted amounts (≈) assume the structure as drawn.

Legend:
[1] = system: Dermatophyten, Schimmelpilze, Hefen; assay: Antimycotic in-vitro activity, serial dilution test, overall spectrum; type: cell-based; conditions: statement in words on the in-vitro serial dilution test
Description: (§1) Die in-vitro-Prüfungen wurden im Reihenverdünnungstest mit Keiminokula von durchschnittlich 5 x 10³ bis 10⁴ Keimen/ml Substrat durchgeführt. Als Nährmedium dienten • a) für Dermatophyten und Schimmelpilze: Sabouraud's milieu d'epreuve • b) für Hefen: Fleischextrakt-Traubenzucker-Bouillon.
(§2) Die Bebrütungstemperatur betrug 28 °C bis 37 °C, die Bebrütungsdauer lag bei 24 bis 96 Stunden bei Hefen und 96 Stunden bei Dermatophyten und Schimmelpilzen.

Aspergillus fumigatus = assay: Antimycotic in-vitro activity, serial dilution test (MIC); type: cell-based; conditions: Sabouraud's milieu d'epreuve, 28 °C to 37 °C, 96 h incubation, inoculum 5 x 10³ to 10⁴ germs/ml; for MIC: Aspergillus fumigatus, read-out: MHK-Werte Aspergillus fumigatus
Description: as §1, §2

Trichophyton mentagr. = assay: as above; type: cell-based; conditions: Sabouraud's milieu d'epreuve, 28 °C to 37 °C, 96 h incubation, inoculum 5 x 10³ to 10⁴ germs/ml; for MIC: Trichophyton, read-out: MHK-Werte Trichophyton mentagr.
Description: as §1, §2

Microsporum canis = assay: as above; type: cell-based; conditions: Sabouraud's milieu d'epreuve, 28 °C to 37 °C, 96 h incubation, inoculum 5 x 10³ to 10⁴ germs/ml; for MIC: Microsporum canis, 96 h, read-out: MHK-Werte Microsporum canis
Description: as §1, §2

Candida albicans = assay: as above; type: cell-based; conditions: meat extract-glucose broth, 28 °C to 37 °C, 24 to 96 h incubation, inoculum 5 x 10³ to 10⁴ germs/ml; for MIC: Candida albicans, read-out: MHK-Werte Candida albicans
Description: as §1, §2

Torulopsis glabrata = assay: as above; type: cell-based; conditions: meat extract-glucose broth, 28 °C to 37 °C, 24 to 96 h incubation, inoculum 5 x 10³ to 10⁴ germs/ml; for MIC: Nakaseomyces glabratus, read-out: MHK-Werte Torulopsis glabrata
Description: as §1, §2

Candida-Zellen = assay: Antimycotic in-vivo activity (oral) in mouse candidosis; parameters: species or system Mäuse vom Typ SPF-CF₁; conditions: for Antimykotische in-vivo-Wirksamkeit (oral) bei Mäusecandidose: mice infected i.v. with 1 - 2 x 10⁶ Candida cells, 10 - 100 mg/kg oral 1 h before and 7 h after infection, survivors on day 6 p.i.; for antimykotische Wirkung: statement in words, mouse candidosis, oral 10 - 100 mg/kg
Description: Mäuse vom Typ SPF-CF₁ wurden intravenös mit 1 - 2 x 10⁶ logarithmisch wachsenden Candida-Zellen, die in physiologischer Kochsalzlösung suspendiert werden, infiziert. Eine Stunde vor und sieben Stunden nach der Infektion werden die Tiere mit jeweils 10 - 100 mg/kg Körpergewicht der Präparate oral behandelt.
Unbehandelte Tiere starben 3 bis 6 Tage post infektionem. Die Überlebensrate am 6.Tag post infektionem betrug bei unbehandelten Kontrolltieren etwa 5 %.

SMILES	antimykotisches Wirkungsspektrum [1]	MHK-Werte Aspergillus fumigatus (Aspergillus fumigatus) [µg/ml Nährmedium]	MHK-Werte Trichophyton mentagr. (Trichophyton mentagr.) [µg/ml Nährmedium]	MHK-Werte Microsporum canis (Microsporum canis) [µg/ml Nährmedium]	MHK-Werte Candida albicans (Candida albicans) [µg/ml Nährmedium]	MHK-Werte Torulopsis glabrata (Torulopsis glabrata) [µg/ml Nährmedium]	MIC (Aspergillus fumigatus) [µg/mL]	MIC (Trichophyton mentagr.) [µg/mL]	MIC (Candida albicans) [µg/mL]	MIC (Torulopsis glabrata) [µg/mL]	MIC (Microsporum canis) [µg/mL]	Antimykotische in-vivo-Wirksamkeit (oral) bei Mäusecandidose (Candida-Zellen)	antimykotische Wirkung (Candida-Zellen)
CC(C)(n1cccn1)C(O)(CCc1ccc(Cl)cc1)Cn1cncn1 (centres unmarked) [Beispiel 1, 5-(4-Chlorphenyl)-2-methyl-2-(pyrazol-1-yl)-3-(1,2,4-triazol-methyl)-pentan-3-ol]	gutes antimykotisches Wirkungsspektrum	2	<1	2	2	2							
CC(C)(Cn1cncn1)C(O)(CCc1ccc2ccccc2c1)Cn1cncn1 (centres unmarked) [Beispiel 2, 4,4-Dimethyl-1-(2-naphthyl)-5-(1,2,4-triazol-1-yl)-3-(1,2,4-triazol-1-yl-methyl)-3-pentanol]	gutes antimykotisches Wirkungsspektrum						> 64	4 (≈ 10.2 µM)	32 (≈ 81.9 µM)	> 64			
Cc1cc(C)n(C(C)(C)C(O)(CCc2ccc(Cl)cc2)Cn2cncn2)n1 (centres unmarked) [Beispiel 21]							2 (≈ 5.16 µM)	< 1	8 (≈ 20.6 µM)	16 (≈ 41.2 µM)	< 1		
CC(C)(n1cccn1)C(O)(CCc1ccc(Cl)cc1F)Cn1cncn1 (centres unmarked) [Beispiel 26]							2 (≈ 5.29 µM)	< 1	8 (≈ 21.2 µM)	32 (≈ 84.7 µM)	2 (≈ 5.29 µM)		
CC(C)(n1cccn1)C(O)(COc1ccc(Cl)cc1)Cn1cncn1 (centres unmarked) [Beispiel 28]							16 (≈ 44.2 µM)	< 1	32 (≈ 88.4 µM)	16 (≈ 44.2 µM)	8 (≈ 22.1 µM)		
Cc1cc(Cl)ccc1OCC(O)(Cn1cncn1)C(C)(C)n1cncn1 (centres unmarked) [Beispiel 12]	gutes antimykotisches Wirkungsspektrum						> 64	4 (≈ 10.6 µM)	16 (≈ 42.5 µM)	> 64			
Cc1ccc(OCC(O)(Cn2cncn2)C(C)(C)n2cncn2)c(Cl)c1 (centres unmarked) [Beispiel 13]	gutes antimykotisches Wirkungsspektrum						> 64	2 (≈ 5.31 µM)	32 (≈ 84.9 µM)	> 64			
CC(C)(n1cncn1)C(O)(C=Cc1ccc(Cl)cc1)Cn1cncn1 (centres unmarked) [Beispiel 8]												++++ (gute Wirkung = 80 % Überlebende am 6.Tag.p.i.)	gute antimykotische Wirkung
CC(C)(Cn1cncn1)C(O)(CCc1ccc(-c2ccccc2)cc1)Cn1cncn1 (centres unmarked) [Beispiel 5]	gutes antimykotisches Wirkungsspektrum						8 (≈ 19.2 µM)	2 (≈ 4.8 µM)	8 (≈ 19.2 µM)	32 (≈ 76.8 µM)		+++ (Wirkung = 60 % Überlebende am 6.Tag.p.i.)	gute antimykotische Wirkung
CC(C)(n1cccn1)C(O)(CCc1ccc(F)cc1)Cn1cncn1 (centres unmarked) [Beispiel 24]							8 (≈ 23.3 µM)	< 1	< 1	4 (≈ 11.6 µM)	4 (≈ 11.6 µM)		
OC(Cn1cncn1)(Cn1cncn1)c1ccccc1 [(A), reference compound]							> 64	64 (≈ 237 µM)	64 (≈ 237 µM)	> 64			
CC(C)(n1cccn1)C(O)(CCc1ccc(Cl)cc1)Cn1cncn1 (centres unmarked) [Beispiel 17]					16	32	2 (≈ 5.56 µM)	< 1			2 (≈ 5.56 µM)		
CC(C)(n1cncn1)C(O)(CSc1ccc(Cl)cc1)Cn1cncn1 (centres unmarked) [Beispiel 9]	gutes antimykotisches Wirkungsspektrum						64 (≈ 169 µM)	2 (≈ 5.28 µM)	< 1	32 (≈ 84.5 µM)			
CC(C)(n1cncn1)C(O)(COc1ccc(Cl)cc1)Cn1cncn1 (centres unmarked) [Beispiel 10]	gutes antimykotisches Wirkungsspektrum						> 64	8 (≈ 22 µM)	2 (≈ 5.51 µM)	> 64		+++++ (sehr gute Wirkung = 90 % Überlebende am 6.Tag.p.i.)	gute antimykotische Wirkung
CC(C)(n1cccn1)C(O)(CCc1ccc(OC(F)(F)F)cc1)Cn1cncn1 (centres unmarked) [Beispiel 20]							< 1	< 1	4 (≈ 9.77 µM)	4 (≈ 9.77 µM)	2 (≈ 4.89 µM)		
CC(C)(n1cccn1)C(O)(/C=C/c1ccc(Cl)cc1)Cn1cncn1 (centres unmarked) [Beispiel 7]	gutes antimykotisches Wirkungsspektrum						4 (≈ 11.2 µM)	< 1	< 1	16 (≈ 44.7 µM)	4 (≈ 11.2 µM)		
CC(C)(n1cccn1)C(O)(CCc1ccccc1F)Cn1cncn1 (centres unmarked) [Beispiel 19]							16 (≈ 46.6 µM)	2 (≈ 5.82 µM)	16 (≈ 46.6 µM)	8 (≈ 23.3 µM)			
Cc1cc(C)n(C(C)(C)C(O)(CCc2ccc(F)cc2)Cn2cncn2)n1 (centres unmarked) [Beispiel 25]							4 (≈ 10.8 µM)	2 (≈ 5.38 µM)	16 (≈ 43.1 µM)	> 64			
CC(C)(n1cncn1)C(O)(COc1ccc(Cl)cc1Cl)Cn1cncn1 (centres unmarked) [Beispiel 11]	gutes antimykotisches Wirkungsspektrum						> 64	2 (≈ 5.03 µM)	8 (≈ 20.1 µM)	> 64			
CC(C)(n1cccn1)C(O)(CCc1ccc(F)cc1Cl)Cn1cncn1 (centres unmarked) [Beispiel 27]							32 (≈ 84.7 µM)	4 (≈ 10.6 µM)	8 (≈ 21.2 µM)	16 (≈ 42.3 µM)			
CC(C)(n1cncn1)C(O)(Cn1cncn1)c1ccc(Cl)cc1 (centres unmarked) [(B), reference compound]							> 64	8 (≈ 24 µM)	> 64	> 64	> 64		
CC(C)(n1cccn1)C(O)(CCc1ccc(F)cc1F)Cn1cncn1 (centres unmarked) [Beispiel 22]							16 (≈ 44.3 µM)	2 (≈ 5.53 µM)	2 (≈ 5.53 µM)	8 (≈ 22.1 µM)			
CC(C)(n1cccn1)C(O)(CCc1ccc(Cl)cc1)Cn1cncn1 (centres unmarked) [Beispiel 18]		2	<1	4	8	2							
CC(C)(n1cncn1)C(O)(CCc1ccc(Cl)cc1)Cn1cncn1 (centres unmarked) [Beispiel 29]							16 (≈ 44.3 µM)	< 1	< 1	32 (≈ 88.7 µM)	4 (≈ 11.1 µM)		
CC(C)(n1cccn1)C(O)(CCc1ccc(Cl)cc1Cl)Cn1cncn1 (centres unmarked) [Beispiel 23]							8 (≈ 20.3 µM)	2 (≈ 5.07 µM)	8 (≈ 20.3 µM)	2 (≈ 5.07 µM)			
